Data on 49 compounds can be found in PubChem BioAssay AID488868 (Broad Institute, 2010).

Assay [1] is described as follows: inhibitors of cytokine-induced nitrite release, dose response, cell-based, Griess absorbance, INS-1E, dry powder, set 2 (AID 488868). Conditions: INS-1E cytokine-induced nitrite, Griess absorbance, 48 h.
In assay [2] the test system is INS-1E cytokine-induced nitrite, Griess absorbance, 48 h. Described as above.

Each structure is given as a SMILES string. The source made the active and inactive calls.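 Rule for the calls: active = compounds lowering nitrite signal whose fitted AC50 is at most ten times their top tested dose; inconclusive = flat drop of 30 to 70 percent, or poor curve fit; inactive = the rest.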

`Cc1ccc(S(=O)(=O)N(C)C[C@@H]2Oc3c(NC(=O)Nc4ccccc4)cccc3C(=O)N([C@@H](C)CO)C[C@H]2C)cc1`: the activity change, negative = inhibition in assay [1] (at 26 µM (top of the series)) was -12.1% (inactive). On the same count and under the same terms, in the case of `C[C@@H]1CN([C@@H](C)CO)C(=O)c2cccc(NC(=O)Nc3ccc(F)cc3)c2O[C@H]1CN(C)S(=O)(=O)c1ccc(F)cc1` it was -1.84% (inactive); in that of `C[C@@H]1CN([C@@H](C)CO)C(=O)c2cccc(NC(=O)Nc3ccccc3)c2O[C@H]1CN(C)S(=O)(=O)c1ccc(Cl)cc1`, -5.63% (inactive). As for `C[C@@H]1CN([C@@H](C)CO)C(=O)c2cccc(NC(=O)Nc3cccc4ccccc34)c2O[C@H]1CN(C)S(=O)(=O)c1ccc2c(c1)OCC2`, the activity change, negative = inhibition in assay [1] (at 26 µM (top of the series)) was -32.4% (inactive). `COc1ccc(S(=O)(=O)N(C)C[C@@H]2Oc3c(NS(=O)(=O)c4ccc(C)cc4)cccc3C(=O)N([C@@H](C)CO)C[C@H]2C)cc1`: the activity change, negative = inhibition in assay [1] (at 23.5 µM (top of the series)) is -10.1% (inactive). On to `COc1ccc(S(=O)(=O)Nc2cccc3c2O[C@@H](CN(C)S(=O)(=O)c2ccc(OC)cc2)[C@H](C)CN([C@@H](C)CO)C3=O)cc1`, for which the activity change, negative = inhibition in assay [1] (at 26 µM (top of the series)) was -6.55% (inactive). Still for that read-out and setting: in the case of `COc1ccc(S(=O)(=O)N(C)C[C@@H]2Oc3c(NC(=O)Nc4ccc(C(F)(F)F)cc4)cccc3C(=O)N([C@@H](C)CO)C[C@H]2C)cc1` it was -12% (inactive); in that of `C[C@@H]1CN([C@@H](C)CO)C(=O)c2cccc(NC(=O)Nc3cccc4ccccc34)c2O[C@H]1CN(C)S(=O)(=O)c1ccc2c(c1)oc(=O)n2C`, 4.7% (inactive).

For `C[C@@H]1CN([C@H](C)CO)C(=O)c2cccc(NC(=O)Nc3ccc(F)cc3)c2O[C@H]1CN(C)S(=O)(=O)c1ccc(Cl)cc1`, in assay [1] (at 12 µM (top of the series)), the activity change, negative = inhibition was 1.53% (inactive). `Cc1ccc(S(=O)(=O)N(C)C[C@@H]2Oc3c(NC(=O)Nc4ccccc4)cccc3C(=O)N([C@H](C)CO)C[C@H]2C)cc1`: the activity change, negative = inhibition in assay [1] (at 26 µM (top of the series)) is -21% (inactive).

Turning to `COc1ccc(S(=O)(=O)N(C)C[C@@H]2Oc3c(NC(=O)Nc4cccc5ccccc45)cccc3C(=O)N([C@@H](C)CO)C[C@@H]2C)cc1`, the activity change, negative = inhibition in assay [1] (at 26 µM (top of the series)) was -6.51% (inactive).

For `COc1ccc(S(=O)(=O)N(C)C[C@@H]2Oc3c(NC(=O)Nc4ccccc4)cccc3C(=O)N([C@H](C)CO)C[C@H]2C)cc1`, the AC50 (commonly the midpoint of the concentration-response curve, whichever way the signal moves) in assay [2] is > 26 µM (inactive). `COc1ccc(S(=O)(=O)N(C)C[C@@H]2Oc3c(NC(=O)NC(C)C)cccc3C(=O)N([C@@H](C)CO)C[C@H]2C)cc1`: in assay [1] (at 26 µM (top of the series)), the activity change, negative = inhibition is 6.79% (inactive). Same read-out and setting: in the case of `C[C@@H]1CN([C@@H](C)CO)C(=O)c2cccc(NC(=O)Nc3cccc4ccccc34)c2O[C@H]1CN(C)S(C)(=O)=O` it was 0.629% (inactive); in that of `COc1ccc(S(=O)(=O)N(C)C[C@@H]2Oc3c(NS(=O)(=O)c4cn(C)cn4)cccc3C(=O)N([C@@H](C)CO)C[C@H]2C)cc1`, 4.39% (inactive). The same measure, in the same setting: in the case of `COc1ccc(S(=O)(=O)N(C)C[C@@H]2Oc3c(NC(=O)Nc4ccccc4)cccc3C(=O)N([C@@H](C)CO)C[C@H]2C)cc1` it was -14.9% (inactive). `C[C@@H]1CN([C@@H](C)CO)C(=O)c2cccc(NC(=O)Nc3cccc4ccccc34)c2O[C@H]1CN(C)S(=O)(=O)c1ccc2c(c1)OCCO2`: the AC50 in assay [2] was > 26 µM (inactive). As for `COc1ccc(S(=O)(=O)N(C)C[C@@H]2Oc3c(NC(=O)Nc4ccc(F)cc4)cccc3C(=O)N([C@H](C)CO)C[C@H]2C)cc1`, the activity change, negative = inhibition in assay [1] (at 26 µM (top of the series)) was -19% (inactive). The same measure, in the same setting: in the case of `C[C@@H]1CN([C@@H](C)CO)C(=O)c2cccc(NC(=O)Nc3cccc4ccccc34)c2O[C@H]1CN(C)S(=O)(=O)c1ccc2c(c1)OCCCO2` it was -19.2% (inactive). Same read-out and setting: in the case of `COc1ccc(S(=O)(=O)N(C)C[C@@H]2Oc3c(NS(=O)(=O)c4ccc(Cl)cc4)cccc3C(=O)N([C@@H](C)CO)C[C@H]2C)cc1` it was 4.24% (inactive); in that of `COc1ccc(S(=O)(=O)N(C)C[C@@H]2Oc3c(NS(=O)(=O)c4ccccc4)cccc3C(=O)N([C@@H](C)CO)C[C@H]2C)cc1`, 0.0255% (inactive). For `COc1ccc(S(=O)(=O)N(C)C[C@H]2Oc3c(NC(=O)Nc4cccc5ccccc45)cccc3C(=O)N([C@H](C)CO)C[C@@H]2C)cc1`, the activity change, negative = inhibition in assay [1] (at 26 µM (top of the series)) is -26.2% (inactive). The same measure, in the same setting: in the case of `COc1ccc(S(=O)(=O)N(C)C[C@@H]2Oc3c(NS(=O)(=O)c4ccc(F)cc4)cccc3C(=O)N([C@@H](C)CO)C[C@H]2C)cc1` it was -1.11% (inactive); in that of `COc1ccc(S(=O)(=O)N(C)C[C@@H]2Oc3c(NS(C)(=O)=O)cccc3C(=O)N([C@@H](C)CO)C[C@H]2C)cc1`, -7.41% (inactive); in that of `COc1ccc(S(=O)(=O)N(C)C[C@@H]2Oc3c(NC(=O)c4ccncc4)cccc3C(=O)N([C@@H](C)CO)C[C@H]2C)cc1`, 10% (inactive).

Regarding `C[C@@H]1CN([C@@H](C)CO)C(=O)c2cccc(NC(=O)Nc3cccc4ccccc34)c2O[C@H]1CN(C)C(=O)Nc1ccccc1`, in assay [1] (at 12 µM (top of the series)), the activity change, negative = inhibition is 11.5% (inactive).

For the compound `COc1ccc(S(=O)(=O)N(C)C[C@@H]2Oc3c(NC(=O)C4CC4)cccc3C(=O)N([C@@H](C)CO)C[C@H]2C)cc1`, the activity change, negative = inhibition in assay [1] (at 23.5 µM (top of the series)) was 1.94% (inactive). As to `COc1ccc(S(=O)(=O)N(C)C[C@@H]2Oc3c(NC(=O)Nc4c(C)noc4C)cccc3C(=O)N([C@@H](C)CO)C[C@H]2C)cc1`, in assay [1] (at 26 µM (top of the series)), the activity change, negative = inhibition is -3.17% (inactive).

Turning to `C[C@@H]1CN([C@H](C)CO)C(=O)c2cccc(NC(=O)Nc3ccccc3)c2O[C@H]1CN(C)S(=O)(=O)c1ccc(F)cc1`, the activity change, negative = inhibition in assay [1] (at 26 µM (top of the series)) is -13.8% (inactive).

With `COc1ccc(S(=O)(=O)N(C)C[C@@H]2Oc3c(NC(=O)Nc4ccc(F)cc4)cccc3C(=O)N([C@@H](C)CO)C[C@H]2C)cc1`, the activity change, negative = inhibition in assay [1] (at 23.5 µM (top of the series)) is -9.52% (inactive). With `COc1ccc(S(=O)(=O)N(C)C[C@@H]2Oc3c(NC(=O)Nc4cccc5ccccc45)cccc3C(=O)N(C(C)C)C[C@H]2C)cc1`, in assay [1] (at 26 µM (top of the series)), the activity change, negative = inhibition is 12.7% (inactive). The same measure, in the same setting: in the case of `COc1ccc(S(=O)(=O)N(C)C[C@@H]2Oc3c(NC(=O)c4cnccn4)cccc3C(=O)N([C@@H](C)CO)C[C@H]2C)cc1` it was 5.1% (inactive); in that of `COc1ccc(S(=O)(=O)N(C)C[C@@H]2Oc3c(NC(=O)Nc4cccc5ccccc45)cccc3C(=O)N([C@@H](C)CO)C[C@H]2C)cc1OC`, 2.18% (inactive). Still for that read-out and setting: in the case of `C[C@@H]1CN([C@@H](C)CO)C(=O)c2cccc(NC(=O)Nc3cccc4ccccc34)c2O[C@H]1CN(C)S(=O)(=O)c1ccc2ncsc2c1` it was -14.4% (inactive).

With `Cc1ccc(S(=O)(=O)N(C)C[C@@H]2Oc3c(NC(=O)Nc4ccc(F)cc4)cccc3C(=O)N([C@H](C)CO)C[C@H]2C)cc1`, the activity change, negative = inhibition in assay [1] (at 12 µM (top of the series)) is -0.835% (inactive).

`COc1ccc(S(=O)(=O)N(C)C[C@@H]2Oc3c(NC(=O)c4cc(C)nn4C)cccc3C(=O)N([C@@H](C)CO)C[C@H]2C)cc1`: the activity change, negative = inhibition in assay [1] (at 26 µM (top of the series)) is -1.39% (inactive). Turning to `C[C@@H]1CN([C@@H](C)CO)C(=O)c2cccc(NC(=O)Nc3cccc4ccccc34)c2O[C@H]1CN(C)S(=O)(=O)c1ccc2c(n1)N(C)CCO2`, the activity change, negative = inhibition in assay [1] (at 12 µM (top of the series)) was 1.75% (inactive). As to `COc1ccc(S(=O)(=O)N(C)C[C@@H]2Oc3c(NC(=O)C4CCOCC4)cccc3C(=O)N([C@@H](C)CO)C[C@H]2C)cc1`, the activity change, negative = inhibition in assay [1] (at 23.5 µM (top of the series)) is 3.17% (inactive). Turning to `COc1ccc(S(=O)(=O)N(C)C[C@H]2Oc3c(NC(=O)Nc4cccc5ccccc45)cccc3C(=O)N([C@H](C)CO)C[C@H]2C)cc1`, the activity change, negative = inhibition in assay [1] (at 26 µM (top of the series)) was 0.786% (inactive). Still for that read-out and setting: in the case of `COc1ccc(S(=O)(=O)N(C)C[C@@H]2Oc3c(NC(=O)C4CCCCC4)cccc3C(=O)N([C@@H](C)CO)C[C@H]2C)cc1` it was 1.58% (inactive). For the compound `COc1ccc(S(=O)(=O)N(C)C[C@@H]2Oc3c(NC(=O)Nc4ccc5c(c4)OCO5)cccc3C(=O)N([C@@H](C)CO)C[C@H]2C)cc1`, the activity change, negative = inhibition in assay [1] (at 26 µM (top of the series)) was -14.3% (inactive).

As for `COc1ccc(S(=O)(=O)N(C)C[C@@H]2Oc3c(NC(=O)c4ccc(-c5nccs5)cc4)cccc3C(=O)N([C@@H](C)CO)C[C@H]2C)cc1`, the activity change, negative = inhibition in assay [1] (at 26 µM (top of the series)) is -0.0778% (inactive). Still for that read-out and setting: in the case of `COc1ccc(S(=O)(=O)N(C)C[C@@H]2Oc3c(NC(=O)Nc4cccc5ccccc45)cccc3C(=O)N([C@H](C)CO)C[C@@H]2C)cc1` it was -1.65% (inactive). Still for that read-out and setting: in the case of `C[C@@H]1CN([C@@H](C)CO)C(=O)c2cccc(NC(=O)Nc3ccccc3)c2O[C@H]1CN(C)S(=O)(=O)c1ccc(F)cc1` it was -5.13% (inactive).

With `COc1ccc(S(=O)(=O)N(C)C[C@H]2Oc3c(NC(=O)Nc4cccc5ccccc45)cccc3C(=O)N([C@@H](C)CO)C[C@@H]2C)cc1`, the activity change, negative = inhibition in assay [1] (at 26 µM (top of the series)) is -8.36% (inactive). On to `COc1ccc(S(=O)(=O)N(C)C[C@@H]2Oc3c(cccc3N(C)C)C(=O)N([C@@H](C)CO)C[C@H]2C)cc1`, for which the activity change, negative = inhibition in assay [1] (at 23.5 µM (top of the series)) was -2.44% (inactive). Consider `C[C@@H]1CN([C@@H](C)CO)C(=O)c2cccc(NC(=O)Nc3cccc4ccccc34)c2O[C@H]1CN(C)S(=O)(=O)c1cn(C)cn1`, for which the activity change, negative = inhibition in assay [1] (at 26 µM (top of the series)) was -2.87% (inactive). Consider `COc1ccc(NC(=O)Nc2cccc3c2O[C@@H](CN(C)S(=O)(=O)c2ccc(OC)cc2)[C@H](C)CN([C@@H](C)CO)C3=O)cc1`, for which the activity change, negative = inhibition in assay [1] (at 26 µM (top of the series)) is -7.77% (inactive). On the same count and under the same terms, in the case of `C[C@H]1CN([C@@H](C)CO)C(=O)c2cccc(NC(=O)NC3CCCCC3)c2O[C@@H]1CN(C)S(C)(=O)=O` it was -3.58% (inactive).
